Laboratory results from patent publication US10022387B2, “Aza-heteroaryl compounds as PI3K-gamma inhibitors” (Incyte Corporation, priority 2015, dated 2018).
Counter-ions that a name gives are not always drawn.

What follows are compounds tested on Phosphorylated Ribosomal Protein S6 (RPS6) in THP-1 cells (assay: THP-1 RPS6 ELISA Assay). Details: Homo sapiens, 2 hours with compound, 10 nM MCP-1 for 15 minutes, read-out: THP p-RPS6 ELISA IC50.
Format: cell-based
Protocol: To measure the Phosphorylated Ribosomal Protein S6 (RPS6) in cell lysates, THP-1 cells (Human Acute Monocytic Leukemia) are purchased from ATCC (Manassas, Va.) and maintained in RPMI with 10% FBS (Gibco/Life Technologies, Carlsbad, Calif.). For the assay, THP-1 cells are serum starved overnight in RPMI, then plated in RPMI (2×10^5 cells/well in 90 μL) into 96-well flat-bottom tissue culture treated plates (Corning, Corning, N.Y.), in the presence or absence of a concentration range of test compounds. Covered plates are incubated for 2 hours at 37° C., 5% CO2 then treated with or without 10 nM MCP-1 (MYBioSource, San Diego, Calif.) for 15 minutes at 37° C., 5% CO2. Plates are centrifuged at 1600 RPM and supernatants are removed. Cells are lysed in Lysis Buffer (Cell Signaling, Danvers, Mass.) with Protease Inhibitor (Calbiochem/EMD, Germany), PMSF (Sigma, St. Louis, Mo.), HALTS (Thermo Fisher, Rockford, Ill.) for 30 min on wet ice. Cell lysates are frozen at −80° C. before testing. The lysates are tested in the Human/Mouse/Rat Phospho-RPS6 ELISA (R&D Systems, Inc. Minn, Minn.). The plate is measured using a microplate reader (SpectraMax M5—Molecular Devices, LLC Sunnyvale, Calif.) set to 450 nm with a wavelength correction of 540. IC50 determination is performed by fitting the curve of inhibitor percent inhibition versus the log of the inhibitor concentration using the GraphPad Prism 5.0 software.

`CCS(=O)(=O)Nc1cc(-c2ccc3nc(-c4nc5c([nH]4)CCCC5)oc3c2)cnc1OC` [Example 66, N-(2-Methoxy-5-(2-(4,5,6,7-tetrahydro-1H-benzo[d]imidazol-2-yl)benzo[d]oxazol-6-yl)pyridin-3-yl)ethanesulfonamide] and `CCS(=O)(=O)Nc1cc(-c2ccc3nc(-c4nc(C)c(C)[nH]4)oc3c2)cnc1OC` [Example 65, N-(5-(2-(4,5-Dimethyl-1H-imidazol-2-yl)benzo[d]oxazol-6-yl)-2-methoxypyridin-3-yl)ethanesulfonamide bis(trifluoroacetate)] cannot be ordered by IC50: < 5 µM for the first, < 1 µM for the second.

`O=S(=O)(c1cncc(-c2ccc3nc(-c4nc5ccccc5[nH]4)oc3c2)c1)N1CCC(O)C1` (centres unmarked) [Example 58, 1-({5-[2-(1H-Benzimidazol-2-yl)-1,3-benzoxazol-6-yl]pyridin-3-yl}sulfonyl)pyrrolidin-3-ol bis(trifluoroacetate)] and `CS(=O)(=O)c1cncc(-c2ccc3nc(-c4nc5ccccc5[nH]4)oc3c2)c1` [Example 36, 2-(1H-Benzo[d]imidazol-2-yl)-6-(5-(methylsulfonyl)pyridin-3-yl)benzo[d]oxazole] cannot be ordered by IC50: ≥ 5 µM for the first, < 5 µM for the second.

Going from `CN1CCN(S(=O)(=O)Nc2cncc(-c3ccc4nc(-c5nc6ccccc6[nH]5)oc4c3)c2)CC1` [Example 31, N-(5-(2-(1H-Benzo[d]imidazol-2-yl)benzo[d]oxazol-6-yl)pyridin-3-yl)-4-methylpiperazine-1-sulfonamide] to `CC(C)S(=O)(=O)Nc1cncc(-c2ccc3nc(-c4nc5ccccc5[nH]4)oc3c2)c1` [Example 24, N-(5-(2-(1H-Benzo[d]imidazol-2-yl)benzo[d]oxazol-6-yl)pyridin-3-yl)propane-2-sulfonamide], the IC50 rises from < 1 µM to ≥ 5 µM. The first is the more potent here.

`CCS(=O)(=O)Nc1cc(-c2ccc3nc(-c4nc5ccccc5[nH]4)oc3c2)cnc1OC` [Example 79, N-(5-(2-(1H-Benzo[d]imidazol-2-yl)benzo[d]oxazol-6-yl)-2-methoxypyridin-3-yl)ethanesulfonamide bis(trifluoroacetate)] and `CCS(=O)(=O)Nc1cc(-c2ccc3nc(-c4nc5ccccc5[nH]4)oc3c2)cnc1C` [Example 25, N-(5-(2-(1H-Benzo[d]imidazol-2-yl)benzo[d]oxazol-6-yl)-2-methylpyridin-3-yl)ethanesulfonamide] cannot be ordered by IC50: < 1 µM for the first, < 5 µM for the second.

`CCCc1nc(-c2nc3ccc(-c4cncc(NS(=O)(=O)CC)c4)cc3o2)[nH]c1C` [Example 64, N-(5-(2-(5-Methyl-4-propyl-1H-imidazol-2-yl)benzo[d]oxazol-6-yl)pyridin-3-yl)ethanesulfonamide bis(trifluoroacetate)] and `CCS(=O)(=O)Nc1cncc(-c2ccc3nc(-c4ncc[nH]4)oc3c2)c1` [Example 40, N-(5-(2-(1H-Imidazol-2-yl)benzo[d]oxazol-6-yl)pyridin-3-yl)ethanesulfonamide] cannot be ordered by IC50: ≥ 5 µM for the first, < 5 µM for the second.

`CCn1ncc2ncc(-c3ccc4nc(-c5nc6ccccc6[nH]5)oc4c3)cc21` [Example 57, 6-[2-(1H-Benzimidazol-2-yl)-1,3-benzoxazol-6-yl]-1-ethyl-1H-pyrazolo[4,3-b]pyridine tris(trifluoroacetate)] and `CCn1ncc2ccc(-c3ccc4nc(-c5nc6ccccc6[nH]5)oc4c3)cc21` [Example 54, 2-(1H-Benzimidazol-2-yl)-6-(1-ethyl-1H-indazol-6-yl)-1,3-benzoxazole bis(trifluoroacetate)] cannot be ordered by IC50: ≥ 5 µM for the first, ≥ 5 µM for the second.

`OC(c1cncc(-c2ccc3nc(-c4ncc[nH]4)oc3c2)c1)C(F)(F)F` (centres unmarked) [Example 61, 1-(5-(2-(1H-Imidazol-2-yl)benzo[d]oxazol-6-yl)pyridin-3-yl)-2,2,2-trifluoroethanol bis(trifluoroacetate)] and `Cc1nc(-c2nc3ccc(-c4cncc(C(O)C(F)(F)F)c4)cc3o2)[nH]c1C` (centres unmarked) [Example 67, 1-(5-(2-(4,5-Dimethyl-1H-imidazol-2-yl)benzo[d]oxazol-6-yl)pyridin-3-yl)-2,2,2-trifluoroethanol bis(trifluoroacetate)] cannot be ordered by IC50: < 1 µM for the first, < 1 µM for the second.

`Nc1ncc(-c2ccc3nc(-c4nc5ccccc5[nH]4)oc3c2)cc1C(F)(F)F` [Example 56, 5-[2-(1H-Benzimidazol-2-yl)-1,3-benzoxazol-6-yl]-3-(trifluoromethyl)pyridin-2-amine bis(trifluoroacetate)] and `COc1cc(-c2ccc3nc(-c4nc5ccccc5[nH]4)oc3c2)cnc1F` [Example 69, 2-(1H-Benzo[d]imidazol-2-yl)-6-(6-fluoro-5-methoxypyridin-3-yl)benzo[d]oxazole bis(trifluoroacetate)] cannot be ordered by IC50: ≥ 5 µM for the first, ≥ 5 µM for the second.

`CN(C)S(=O)(=O)c1cncc(-c2ccc3nc(-c4nc5ccccc5[nH]4)oc3c2)c1` [Example 37, 5-[2-(1H-benzimidazol-2-yl)-1,3-benzoxazol-6-yl]-N,N-dimethylpyridine-3-sulfonamide] and `CP(C)(=O)c1cncc(-c2ccc3nc(-c4nc5ccccc5[nH]4)oc3c2)c1` [Example 72, 2-(1H-Benzo[d]imidazol-2-yl)-6-(5-(dimethylphosphoryl)pyridin-3-yl)benzo[d]oxazole bis(trifluoroacetate)] cannot be ordered by IC50: < 5 µM for the first, ≥ 5 µM for the second.

`O=S(=O)(CC(F)(F)F)Nc1cc(-c2ccc3nc(-c4nc5ccccc5[nH]4)oc3c2)cnc1F` [Example 75, N-(5-(2-(1H-Benzo[d]imidazol-2-yl)benzo[d]oxazol-6-yl)-2-fluoropyridin-3-yl)-2,2,2-trifluoroethanesulfonamide bis(trifluoroacetate)] and `Cc1ncc(-c2ccc3nc(-c4nc5ccccc5[nH]4)oc3c2)cc1NS(=O)(=O)CC(F)(F)F` [Example 76, N-(5-(2-(1H-Benzo[d]imidazol-2-yl)benzo[d]oxazol-6-yl)-2-methylpyridin-3-yl)-2,2,2-trifluoroethanesulfonamide bis(trifluoroacetate)] cannot be ordered by IC50: < 1 µM for the first, < 1 µM for the second.

`O=S(=O)(Nc1cncc(-c2ccc3nc(-c4nc5ccccc5[nH]4)oc3c2)c1)c1cccc(F)c1` [Example 19, N-(5-(2-(1H-Benzo[d]imidazol-2-yl)benzo[d]oxazol-6-yl)pyridin-3-yl)-3-fluorobenzene-sulfonamide] and `O=S(=O)(Nc1cncc(-c2ccc3nc(-c4nc5ccccc5[nH]4)oc3c2)c1)c1ccc(F)cc1` [Example 17, N-(5-(2-(1H-Benzo[d]imidazol-2-yl)benzo[d]oxazol-6-yl)pyridin-3-yl)-4-fluorobenzenesulfonamide] cannot be ordered by IC50: < 5 µM for the first, < 1 µM for the second.

`c1ccc2[nH]c(-c3nc4ccc(-c5ccc6[nH]ncc6c5)cc4o3)nc2c1` [Example 49, 2-(1H-Benzimidazol-2-yl)-6-(1H-indazol-5-yl)-1,3-benzoxazole] and `CCS(=O)(=O)n1ncc2ccc(-c3ccc4nc(-c5nc6ccccc6[nH]5)oc4c3)cc21` [Example 52, 6-[1-(Ethylsulfonyl)-1H-indazol-6-yl]-2-(1H-benzimidazol-2-yl)-1,3-benzoxazole] cannot be ordered by IC50: ≥ 5 µM for the first, ≥ 5 µM for the second.

`CCS(=O)(=O)Nc1cc(-c2ccc3nc(-c4nc5ccccc5[nH]4)oc3c2)cnc1Cl` [Example 26, N-(5-(2-(1H-Benzo[d]imidazol-2-yl)benzo[d]oxazol-6-yl)-2-chloropyridin-3-yl)ethanesulfonamide] and `CCS(=O)(=O)Nc1cc(-c2ccc3nc(-c4nc5ccccc5[nH]4)oc3c2)cnc1F` [Example 27, N-(5-(2-(1H-Benzo[d]imidazol-2-yl)benzo[d]oxazol-6-yl)-2-fluoropyridin-3-yl)ethanesulfonamide] cannot be ordered by IC50: < 1 µM for the first, < 1 µM for the second.

`O=S(=O)(Nc1cc(-c2ccc3nc(-c4nc5ccccc5[nH]4)oc3c2)cnc1F)c1ccc(F)cc1` [Example 30, N-(5-(2-(1H-Benzo[d]imidazol-2-yl)benzo[d]oxazol-6-yl)-2-fluoropyridin-3-yl)-4-fluorobenzene-sulfonamide] and `Cc1ncc(-c2ccc3nc(-c4nc5ccccc5[nH]4)oc3c2)cc1NS(=O)(=O)c1ccc(F)cc1` [Example 28, N-(5-(2-(1H-Benzo[d]imdiazol-2-yl)benzo[d]oxazol-6-yl)-2-methylpyridin-3-yl)-4-fluorobenzene-sulfonamide] cannot be ordered by IC50: < 1 µM for the first, < 1 µM for the second.

`COc1cncc(-c2ccc3nc(-c4nc5ccccc5[nH]4)oc3c2)c1` [Example 4, 2-(1H-Benzo[d]imidazol-2-yl)-6-(5-methoxypyridin-3-yl)benzo[d]oxazole trifluoroacetate] and `Cc1ncc(-c2ccc3nc(-c4nc5ccccc5[nH]4)oc3c2)cc1NS(=O)(=O)N(C)C` [Example 22, N′-{5-[2-(1H-Benzimidazol-2-yl)-1,3-benzoxazol-6-yl]-2-methylpyridin-3-yl}-N,N-dimethylsulfamide] cannot be ordered by IC50: < 5 µM for the first, < 1 µM for the second.

`COc1cncc(-c2ccc3nc(-c4cnc(C5CC5)[nH]4)oc3c2)c1` [Example 42, 2-(2-Cyclopropyl-1H-imidazol-5-yl)-6-(5-methoxypyridin-3-yl)benzo[d]oxazole] and `CCS(=O)(=O)Nc1cc(-c2ccc3nc(-c4nc5ccccc5[nH]4)oc3c2)cc(F)c1OC` [Example 80, N-(5-(2-(1H-Benzo[d]imidazol-2-yl)benzo[d]oxazol-6-yl)-3-fluoro-2-methoxyphenyl)ethanesulfonamide bis(trifluoroacetate)] cannot be ordered by IC50: ≥ 5 µM for the first, ≥ 5 µM for the second.
